How the values were obtained:
[1] = tested on: laminin; experiment: Laminin secretion amount (ELISA) of tunicamycin-treated epidermal keratinocytes; type: cell-based, Human; details: HaCaT, tunicamycin 0.1 µg/mL, 50 µg/mL to 200 µg/mL, 24 hours; recovery increased as content increased; Fig. 7
Experimental: Human normal epidermal keratinocytes (HaCaT) were cultured using DMEM containing 10% FBS. The cultured cells were collected by trypsin treatment. The collected cells were seeded in a 24-well plate, and when they reached 100% confluence, tunicamycin was added at 0.1 µg/mL, and after 24 hours, the culture supernatant was collected. A group was also prepared in which FBS-free DMEM medium containing a test sample (2'-fucosyllactose) at 50 µg/mL, 100 µg/mL, or 200 µg/mL was added simultaneously with tunicamycin, and after 24 hours, the culture supernatant was collected. The culture supernatant was centrifuged, and the resulting supernatant was used as a sample. […] This total cell protein concentration was measured by the Bradford assay.
Human normal epidermal keratinocytes were cultured and the culture supernatant was collected in the same manner as in Example 6-1, except that tunicamycin and the test sample were not added. […] This total cell protein concentration was measured by the Bradford assay.
An Enzyme-Linked Immunosorbent Assay (ELISA) method was performed using an antibody against laminin to measure the amount of laminin in the sample. […] After stopping the reaction, the absorbance at a measurement wavelength of 450 nm was measured with a microplate reader. […]

[2] = tested on: type I collagen; experiment: Type I collagen expression analysis (ELISA); type: cell-based, Human; details: at a concentration of at least 100 µg/mL or more, 48 hours; effect increased from 100 µg/mL to 200 µg/mL; Fig. 9
Experimental: Human normal dermal fibroblasts (NB1RGB) with a PDL of 30 or less were cultured in DMEM (Dulbecco's Modified Eagle Medium, manufactured by Nissui Pharmaceutical Co., Ltd.) containing 10% FBS. The cultured cells were collected by trypsin treatment. The collected cells were seeded in a 96-well plate, and when they reached 100% confluence, FBS-free DMEM containing the test sample (2'-FL and sucrose) at 50 µg/mL, 100 µg/mL, or 200 µg/mL was added, and after culturing for 48 hours in a 37°C, 5% CO2 incubator, the culture supernatant was collected. The culture supernatant was centrifuged, and the resulting supernatant was used as a sample.
The culture supernatant was collected and used as a sample in the same manner as in [Example 8-1], except that FBS-free DMEM not containing the test sample was used instead of FBS-free DMEM containing the test sample.
An Enzyme-Linked Immunosorbent Assay (ELISA) method was performed using an antibody against type I collagen to measure the amount of type I collagen in the samples. […] After stopping the reaction, the absorbance at a measurement wavelength of 450 nm was measured using a microplate reader. […] The relative value of the type I collagen amount when each test sample was added was calculated, with the type I collagen amount in the control set to 1.

[3] = tested on: GLS1; experiment: GLS1 expression analysis (ELISA) in KKLS; type: cell-based; details: human gastric undifferentiated carcinoma cells (KKLS), at least 200 µg/mL or more, 24 hours; effect increased from 200 to 1000 µg/mL; Fig. 12
Experimental: Human gastric undifferentiated carcinoma cells (KKLS) were cultured in RPMI 1640 (manufactured by Nissui Pharmaceutical Co., Ltd.) containing 10% FBS. The cultured cells were collected by trypsin treatment. The collected cells were seeded in a 6-well plate, and when they reached 100% confluence, RPMI 1640 containing the test sample (2'-FL and lactose) at 50 µg/mL, 200 µg/mL, or 1000 µg/mL was added, and cultured for 24 hours in a 37°C, 5% CO2 incubator. The culture supernatant was removed, the cells were washed twice with PBS, and 0.20 mL of RIPA buffer was added to extract total protein. Protein in each protein extract was quantified by the Bradford assay.
Protein extracts were collected in the same manner as in [Example 10-1 B. Human gastric undifferentiated carcinoma cells (KKLS)], [Example 10-1 C. Mouse microglial cells (BV2)], [Example 10-1 D. Human gingival fibroblasts (Gin-1)], and [Example 10-1 E. Human umbilical vein endothelial cells (HUVEC)], respectively, except that a medium same as the above-mentioned medium but not containing the test sample was used instead of the medium containing the test sample, and protein in each protein extract was quantified by the Bradford assay.
An ELISA method was performed using an antibody against GLS1 to measure the amount of GLS1 in the samples. […]

C[C@@H]1O[C@@H](O[C@H]2[C@H](O[C@H]3[C@H](O)[C@@H](O)C(O)O[C@@H]3CO)O[C@H](CO)[C@H](O)[C@@H]2O)[C@@H](O)[C@H](O)[C@@H]1O (stereo partly drawn) [2'-FL, 2'-fucosyllactose]
laminin secretion [1]: restored laminin secretion | expression level of type I collagen [2]: increased the expression level of type I collagen | GLS1 expression [3]: suppressed GLS1 expression

Source: patent EP4670722A1, “PROPHYLACTIC OR AMELIORATING AGENT FOR CELL AGING” (Kyowa Pharma Chemical Co., Ltd., priority 2023, dated 2024)
